Results from ChEMBL document CHEMBL3407452, “Linear and branched alkyl-esters and amides of gallic acid and other (mono-, di- and tri-) hydroxy benzoyl derivatives as promising anti-HCV inhibitors” (Eur J Med Chem, 2015).
Calls of active or inactive are those of the source. No cut-off for these calls is given here.

Experiments:
Influenza A virus = experiment: Antiviral activity against influenza A virus (H1N1); format: functional, organism-based
[1] = Cytotoxicity against human Huh5-2 cells after 72 hrs by MTS assay; format: cell-based, Huh-5-2
Influenza A virus H3N2 = experiment: Antiviral activity against influenza A virus H3N2; format: functional, organism-based
Feline coronavirus = experiment: Antiviral activity against feline coronavirus; format: functional, organism-based
[2] = tested on: Vesicular stomatitis virus; experiment: Antiviral activity against vesicular stomatitis virus; format: functional, organism-based
Hepatitis C virus = experiment: Antiviral activity against HCV genotype 1b I389luc-ubi-neo/NS3-3'/5.1 replicons infected in human Huh5-2 HCV subgenomic replicon-containing cells assessed as reduction in virus replication after 3 days by luciferase reporter gene assay; format: functional, Hepacivirus hominis; details: Hepatitis C virus, genotype 1b, Huh-5-2, 72 h; for EC50: read-out: EC50
Coxsackievirus B4 = experiment: Antiviral activity against human coxsackievirus B4; format: functional, organism-based
[3] = tested on: Human immunodeficiency virus 1; experiment: Antiviral activity against HIV1 3B infected in human CEM cells assessed as reduction in virus-induced cytopathicity after 4 to 5 days by microscopy based syncytium cell formation assay; format: functional, organism-based, CCRF-CEM; details: Human immunodeficiency virus 1, 3B, CCRF-CEM; read-out: EC50
Sindbis virus = experiment: Antiviral activity against sindbis virus; format: functional, organism-based
[4] = Cytotoxicity against human CEM cells assessed as inhibition of cell proliferation; format: cell-based; details: CEM cells (CCRF-CEM)
[5] = tested on: Respiratory syncytial virus; experiment: Antiviral activity against RSV; format: functional, organism-based
Vaccinia virus = experiment: Antiviral activity against vaccinia virus; format: functional, organism-based; details: Orthopoxvirus vaccinia
Felid alphaherpesvirus 1 = experiment: Antiviral activity against feline herpesvirus; format: functional, organism-based
Human respirovirus 3 = experiment: Antiviral activity against human parainfluenza virus 3; format: functional, organism-based
Reovirus sp. = experiment: Antiviral activity against reovirus; format: functional, organism-based
Chikungunya virus = experiment: Antiviral activity against chikungunya virus; format: functional
[6] = tested on: Human immunodeficiency virus 2; experiment: Antiviral activity against HIV2 ROD infected in human CEM cells assessed as reduction in virus-induced cytopathicity after 4 to 5 days by microscopy based syncytium cell formation assay; format: functional, organism-based, ISOLATE ROD, CCRF-CEM; details: Human immunodeficiency virus 2, ISOLATE ROD, CCRF-CEM; read-out: EC50
Punta Toro virus = experiment: Antiviral activity against punta toro virus; format: functional, organism-based
[7] = Selectivity index, ratio of CC50 for human CEM cells to EC50 for HIV1 3B; format: toxicity, cell-based, CCRF-CEM; details: read-out: Ratio CC50/EC50
[8] = Selectivity index, ratio of CC50 for human Huh5-2 cells to EC50 for HCV genotype 1b; set-up: species or system Huh-5-2

| SMILES | Activity (Influenza A virus) | CC50 at 72 h [1] | Activity (Influenza A virus H3N2) | Activity (Feline coronavirus) | Activity [2] | EC90 (Hepatitis C virus) | EC50 (Hepatitis C virus) | Activity (Coxsackievirus B4) | EC50 [3] | Activity (Sindbis virus) | CC50 [4] | Activity [5] | Activity (Vaccinia virus) | Activity (Felid alphaherpesvirus 1) | Activity (Human respirovirus 3) | Activity (Reovirus sp.) | Activity (Chikungunya virus) | EC50 [6] | Activity (Punta Toro virus) | selectivity ratio [7] | further results |
| --- | --- | --- | --- | --- | --- | --- | --- | --- | --- | --- | --- | --- | --- | --- | --- | --- | --- | --- | --- | --- | --- |
| O=C(NCCN(CCN(CCN(CCNC(=O)c1cc(O)c(O)c(O)c1)C(=O)c1cc(O)c(O)c(O)c1)C(=O)c1cc(O)c(O)c(O)c1)C(=O)c1cc(O)c(O)c(O)c1)c1cc(O)c(O)c(O)c1 | inactive | > 50 µM | inactive | inactive | inactive | > 50 µM | 34 µM | inactive | 4.9 µM | inactive | 21 µM | inactive | inactive | inactive | inactive | inactive | inactive | > 10 µM | inactive | 4 |  |
| O=C(NCCCOCCOCCOCCCNC(=O)c1ccc(O)c(O)c1O)c1ccc(O)c(O)c1O | inactive | 49 µM | inactive | inactive | inactive |  | 28 µM | inactive | > 50 µM | inactive | 81 µM | inactive | inactive | inactive | inactive | inactive | inactive | > 50 µM | inactive |  |  |
| CCCCCOC(=O)c1cc(O)c(O)c(O)c1 [PENTYL GALLATE] | inactive | > 50 µM | inactive | inactive | inactive | > 50 µM | 14 µM | inactive | 14 µM | inactive | 47 µM | inactive | inactive | inactive | inactive | inactive | inactive | ≥ 10 µM | inactive |  |  |
| O=C(NCCN(CCNC(=O)c1ccc(O)c(O)c1O)CCNC(=O)c1ccc(O)c(O)c1O)c1ccc(O)c(O)c1O | inactive | > 3.7 µM | inactive | inactive | inactive | > 5.5 µM | > 5.5 µM | inactive | 2.5 µM | inactive | 28 µM | inactive | inactive | inactive | inactive | inactive | inactive | > 10 µM | inactive | 10 |  |
| CCCCCCCCCCCCOC(=O)c1cc(O)c(O)c(O)c1 [DODECYL GALLATE] | inactive | 8.9 µM | inactive | inactive | inactive | 1.8 µM | 0.4 µM | inactive | ≥ 1 µM | inactive | 2.8 µM | inactive | inactive | inactive | inactive | inactive | inactive | ≥ 1 µM | inactive |  | Ratio CC50/EC50 [8]: >22 |
| O=C(NCCCCNC(=O)c1cc(O)c(O)c(O)c1)c1cc(O)c(O)c(O)c1 | inactive | 29 µM | inactive | inactive | inactive | > 29 µM | 18 µM | inactive | 5.2 µM | inactive | 23 µM | inactive | inactive | inactive | inactive | inactive | inactive | > 10 µM | inactive |  |  |
| O=C(NCCCCN(CCCNC(=O)c1cc(O)c(O)c(O)c1)C(=O)c1cc(O)c(O)c(O)c1)c1cc(O)c(O)c(O)c1 | inactive |  | inactive | inactive | inactive |  |  | inactive | 18 µM | inactive | 107 µM | inactive | inactive | inactive | inactive | inactive | inactive |  | inactive | 6 |  |
| O=C(NCCCCCCCCCCNC(=O)c1ccc(O)c(O)c1O)c1ccc(O)c(O)c1O | inactive | > 100 µM | inactive | inactive | inactive |  | 11 µM | inactive | > 50 µM | inactive | 100 µM | inactive | inactive | inactive | inactive | inactive | inactive | > 50 µM | inactive |  |  |
| O=C(NCCCCCCNC(=O)c1cc(O)c(O)c(O)c1)c1cc(O)c(O)c(O)c1 | inactive | 24 µM | inactive | inactive | inactive | > 24 µM | 11 µM | inactive | > 10 µM | inactive | 72 µM | inactive | inactive | inactive | inactive | inactive | inactive | > 10 µM | inactive |  |  |
| O=C(NCCCCCCCCCCCCNC(=O)c1cccc(O)c1O)c1cccc(O)c1O | inactive | 108 µM | inactive | inactive | inactive | 4.8 µM | 2 µM | inactive | > 2 µM | inactive | 4.8 µM | inactive | inactive | inactive | inactive | inactive | inactive | > 2 µM | inactive |  |  |
| O=C(NCCCCNC(=O)c1ccc(O)c(O)c1O)c1ccc(O)c(O)c1O | inactive | > 50 µM | inactive | inactive | inactive | > 50 µM | 15 µM | inactive | > 10 µM | inactive | 109 µM | inactive | inactive | inactive | inactive | inactive | inactive | > 10 µM | inactive |  |  |
| O=C(NCCCCCCCCCCCCNC(=O)c1cc(O)c(O)c(O)c1)c1cc(O)c(O)c(O)c1 | inactive | > 100 µM | inactive | inactive | inactive | > 100 µM | 27 µM | inactive | 19 µM | inactive | 58 µM | inactive | inactive | inactive | inactive | inactive | inactive | 26 µM | inactive |  |  |
| O=C(NCCCCN(CCCNC(=O)c1ccc(O)c(O)c1O)C(=O)c1ccc(O)c(O)c1O)c1ccc(O)c(O)c1O | inactive | > 50 µM | inactive | inactive | inactive | > 50 µM | 34 µM | inactive | 2.6 µM | inactive | 27 µM | inactive | inactive | inactive | inactive | inactive | inactive | > 10 µM | inactive | 10 |  |
